# Measured values published in ChEMBL document CHEMBL1201862, “PubChem BioAssay data set” (2004).
# The source made the active and inactive calls.
# Assays:
# [1] = biological target: ADP-ribosylation factor GTPase-activating protein 1 (Rattus norvegicus, UniProt Q62848); experiment: Fluorescence polarization-based biochemical high throughput dose response screening assay to identify inhibitors of ADP-ribosylation factor GTPase activating protein 1 (ARFGAP1).; assay type: functional
# [2] = growth suppression of beta-catenin-knockout colon cells, dose response, cell-based, HCT116, human colon tumor (AID 1045); assay type: functional;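 note: HCT116 colon tumor cells with beta catenin knocked out; cells exposed to compound for 60 hours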
# [3] = NIH-3T3 fibroblast cytotoxicity, dose response, cytotoxicity control, cell-based, fluorescence, Alamar Blue, secondary assay (AID 2327); assay type: functional;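 note: NIH-3T3 mouse fibroblasts cultured with fluconazole at 8 µg/mL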
# [4] = inhibitors of intracellular T. cruzi replication, confirmation, NIH3T3 host cells, beta-gal luminescence (AID 2044); assay type: functional, cell-based;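 note: intracellular parasites grown in NIH/3T3 mouse fibroblasts as host cells; luminescent beta-galactosidase reporter signal from transgenic T. cruzi replicating inside host cells; inhibitors lower the luminescence signal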
# [5] = cytotoxicity toward NIH3T3 fibroblasts, dose response, counter-screen, cell-based, ATP luminescence, mouse fibroblasts (AID 2010); assay type: functional;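 note: cells exposed to compound for about 90 hours before reading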
# [6] = miR-122 activators in hepatoma reporter cells, dose response, cell-based, Huh7 psiCHECK-miR122, Renilla luciferase, cherry-picked (AID 651956); assay type: functional;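 note: huh7 hepatoma cells stably carrying a psiCHECK-2 miR-122 sensor plasmid; renilla luciferase signal reporting endogenous miR-122 activity after 48 h compound exposure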
# [7] = C. albicans growth with fluconazole, confirmation, fluorescence, retest (AID 2467); assay type: functional, cell-based
# [8] = growth suppression of PTEN-null colon cells, dose response, cell-based, HCT116 PTEN knockout (AID 1047); assay type: functional;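 note: HCT116 colon tumor cells with PTEN knocked out; cells exposed to compound for 60 hours before readout; potency for loss of cell viability measured by luminescence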
# [9] = HEK293T cytotoxicity, dose response, cytotoxicity control for miR-122 modulator project, cell-based, activator set, cherry-pick (AID 720690); assay type: functional;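 note: HEK293T human cells scored for general mammalian cytotoxicity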
# Saccharomyces cerevisiae = experiment: NALP1 inhibitor project selectivity study, Caspase-1/ASC signal blockade IC50 in S. cerevisiae (AID 488863); assay type: functional, organism-based
# [10] = microbe, parasite or virus in culture; assay type: functional; conditions: Mycobacterium tuberculosis
# [11] = MDA-MB-231 cell growth inhibition, dose response, cytotoxicity control for RAD54 inhibitor project, CellTiter-Glo luminescence, cherry-pick (AID 651692); assay type: functional, cell-based
# [12] = biological target: T1, NACHT, LRR and PYD domains-containing protein 1 (Homo sapiens, UniProt Q9C000); experiment: NALP1 inhibitors in yeast, dose response, luminescent (AID 488860); assay type: functional
# T1 sequence (Q9C000 whole entry): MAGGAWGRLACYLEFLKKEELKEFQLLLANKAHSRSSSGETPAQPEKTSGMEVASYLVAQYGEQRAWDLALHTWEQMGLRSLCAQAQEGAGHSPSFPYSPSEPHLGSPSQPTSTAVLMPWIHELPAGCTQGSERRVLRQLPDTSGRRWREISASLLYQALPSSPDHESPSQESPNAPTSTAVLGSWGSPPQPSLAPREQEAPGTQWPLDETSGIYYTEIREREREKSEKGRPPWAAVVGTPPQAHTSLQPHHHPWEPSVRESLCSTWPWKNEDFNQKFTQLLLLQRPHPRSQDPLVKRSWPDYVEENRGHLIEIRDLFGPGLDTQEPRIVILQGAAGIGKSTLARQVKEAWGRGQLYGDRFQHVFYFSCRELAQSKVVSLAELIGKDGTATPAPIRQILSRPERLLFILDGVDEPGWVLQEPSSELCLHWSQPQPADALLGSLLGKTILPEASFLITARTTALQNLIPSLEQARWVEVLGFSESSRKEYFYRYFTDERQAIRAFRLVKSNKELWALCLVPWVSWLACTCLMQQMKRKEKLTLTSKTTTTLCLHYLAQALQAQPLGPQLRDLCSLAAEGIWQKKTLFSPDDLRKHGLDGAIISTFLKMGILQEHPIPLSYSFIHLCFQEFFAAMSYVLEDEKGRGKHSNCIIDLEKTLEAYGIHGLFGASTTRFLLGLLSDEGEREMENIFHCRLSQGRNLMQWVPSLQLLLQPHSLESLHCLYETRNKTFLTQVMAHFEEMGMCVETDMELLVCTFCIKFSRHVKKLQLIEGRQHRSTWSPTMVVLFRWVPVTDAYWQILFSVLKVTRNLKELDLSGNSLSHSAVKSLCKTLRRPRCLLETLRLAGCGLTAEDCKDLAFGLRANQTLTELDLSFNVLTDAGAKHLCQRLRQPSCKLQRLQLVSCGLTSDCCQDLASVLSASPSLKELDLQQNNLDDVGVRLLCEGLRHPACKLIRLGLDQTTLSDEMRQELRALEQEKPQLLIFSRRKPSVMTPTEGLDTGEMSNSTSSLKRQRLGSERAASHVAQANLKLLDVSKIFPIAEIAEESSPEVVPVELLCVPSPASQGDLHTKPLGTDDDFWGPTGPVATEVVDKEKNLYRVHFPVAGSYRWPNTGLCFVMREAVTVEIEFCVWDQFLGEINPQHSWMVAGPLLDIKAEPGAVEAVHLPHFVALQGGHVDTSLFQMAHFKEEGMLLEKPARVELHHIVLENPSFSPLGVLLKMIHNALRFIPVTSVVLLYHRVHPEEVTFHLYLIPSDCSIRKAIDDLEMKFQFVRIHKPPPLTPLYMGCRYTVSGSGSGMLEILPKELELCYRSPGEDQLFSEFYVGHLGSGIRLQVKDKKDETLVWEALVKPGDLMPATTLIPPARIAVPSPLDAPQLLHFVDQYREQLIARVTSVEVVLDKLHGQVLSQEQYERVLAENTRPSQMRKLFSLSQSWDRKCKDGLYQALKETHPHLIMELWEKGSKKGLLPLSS
# [13] = biological target: T2, DNA repair and recombination protein RAD54-like (Homo sapiens, UniProt Q92698); experiment: inhibitors of human RAD54 branch migration, confirmation, biochemical, fluorescence, cherry-picked samples, dose series (AID 651657); assay type: functional
# T2 sequence (Q92698 whole entry): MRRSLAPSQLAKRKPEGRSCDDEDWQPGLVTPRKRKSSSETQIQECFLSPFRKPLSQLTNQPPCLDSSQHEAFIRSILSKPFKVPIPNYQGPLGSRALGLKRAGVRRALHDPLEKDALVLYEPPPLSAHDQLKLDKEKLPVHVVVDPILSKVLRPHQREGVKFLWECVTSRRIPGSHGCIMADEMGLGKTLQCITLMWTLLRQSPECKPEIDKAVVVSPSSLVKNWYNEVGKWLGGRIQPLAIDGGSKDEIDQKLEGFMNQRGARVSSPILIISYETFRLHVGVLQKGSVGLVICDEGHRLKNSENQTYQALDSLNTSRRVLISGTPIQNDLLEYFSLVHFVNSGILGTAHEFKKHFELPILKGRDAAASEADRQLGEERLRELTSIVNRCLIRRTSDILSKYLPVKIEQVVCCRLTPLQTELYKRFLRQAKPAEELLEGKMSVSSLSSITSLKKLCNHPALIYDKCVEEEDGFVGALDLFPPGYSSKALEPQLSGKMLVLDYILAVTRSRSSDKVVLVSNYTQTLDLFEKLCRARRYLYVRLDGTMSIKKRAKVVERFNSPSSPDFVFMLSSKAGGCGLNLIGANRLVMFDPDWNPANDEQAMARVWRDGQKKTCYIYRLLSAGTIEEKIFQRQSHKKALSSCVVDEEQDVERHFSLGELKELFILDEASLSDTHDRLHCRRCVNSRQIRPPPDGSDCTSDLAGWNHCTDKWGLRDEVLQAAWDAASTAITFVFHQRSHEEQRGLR
# [14] = biological target: T3, DNA repair protein RAD52 homolog (Homo sapiens, UniProt P43351); assay type: functional, biochemical
# T3 sequence (P43351 whole entry): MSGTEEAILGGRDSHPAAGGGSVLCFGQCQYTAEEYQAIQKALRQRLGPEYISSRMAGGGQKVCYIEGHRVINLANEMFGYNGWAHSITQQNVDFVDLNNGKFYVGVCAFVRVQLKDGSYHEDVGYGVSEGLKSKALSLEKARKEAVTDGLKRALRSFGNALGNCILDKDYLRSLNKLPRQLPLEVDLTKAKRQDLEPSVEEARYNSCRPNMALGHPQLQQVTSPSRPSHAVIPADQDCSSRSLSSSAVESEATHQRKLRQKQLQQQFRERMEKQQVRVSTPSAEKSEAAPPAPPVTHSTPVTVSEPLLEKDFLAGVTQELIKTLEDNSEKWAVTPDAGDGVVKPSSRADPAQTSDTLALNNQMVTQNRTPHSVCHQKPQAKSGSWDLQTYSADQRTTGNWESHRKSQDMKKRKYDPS
# [15] = Luminescence Cell-Based Dose Retest to Confirm Inhibitors of Cancer Stem Cells. [Related pubchem assays (depositor defined):AID2717, AID2721]; assay type: functional; conditions: Homo sapiens
# [16] = biological target: Broad substrate specificity ATP-binding cassette transporter ABCG2 (Homo sapiens, UniProt Q9UNQ0); experiment: ABCG2 efflux pump inhibitors, dose response, Ig-MXP3 cells, flow cytometry (AID 1690); assay type: functional
# Chain of Broad substrate specificity ATP-binding cassette transporter ABCG2 (Q9UNQ0 whole entry): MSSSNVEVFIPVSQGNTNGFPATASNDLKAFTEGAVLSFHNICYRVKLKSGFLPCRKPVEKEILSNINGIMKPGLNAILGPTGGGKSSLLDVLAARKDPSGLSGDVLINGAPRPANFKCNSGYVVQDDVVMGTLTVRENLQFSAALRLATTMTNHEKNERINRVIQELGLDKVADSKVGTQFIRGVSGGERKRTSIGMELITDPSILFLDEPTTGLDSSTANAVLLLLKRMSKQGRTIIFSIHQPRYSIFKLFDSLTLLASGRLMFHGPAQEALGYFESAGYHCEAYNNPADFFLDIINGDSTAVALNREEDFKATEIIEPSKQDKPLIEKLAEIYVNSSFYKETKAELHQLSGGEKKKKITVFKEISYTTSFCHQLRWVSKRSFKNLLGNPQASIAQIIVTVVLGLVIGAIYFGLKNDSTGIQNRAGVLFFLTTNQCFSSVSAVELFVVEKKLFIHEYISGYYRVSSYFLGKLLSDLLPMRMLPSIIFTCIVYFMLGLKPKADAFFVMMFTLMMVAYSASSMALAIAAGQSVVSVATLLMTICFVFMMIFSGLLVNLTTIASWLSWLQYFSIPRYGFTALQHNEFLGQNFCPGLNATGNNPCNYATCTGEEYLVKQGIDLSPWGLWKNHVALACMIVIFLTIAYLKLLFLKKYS
# [17] = biological target: T4, Sentrin-specific protease 1 (Homo sapiens, UniProt Q9P0U3); experiment: potency of human SENP1 inhibitors, dose response, biochemical, kinetic FRET (AID 651697); assay type: functional; conditions: read-out: IC50_Mean
# T4 sequence (Q9P0U3 whole entry, the tested form may be a part): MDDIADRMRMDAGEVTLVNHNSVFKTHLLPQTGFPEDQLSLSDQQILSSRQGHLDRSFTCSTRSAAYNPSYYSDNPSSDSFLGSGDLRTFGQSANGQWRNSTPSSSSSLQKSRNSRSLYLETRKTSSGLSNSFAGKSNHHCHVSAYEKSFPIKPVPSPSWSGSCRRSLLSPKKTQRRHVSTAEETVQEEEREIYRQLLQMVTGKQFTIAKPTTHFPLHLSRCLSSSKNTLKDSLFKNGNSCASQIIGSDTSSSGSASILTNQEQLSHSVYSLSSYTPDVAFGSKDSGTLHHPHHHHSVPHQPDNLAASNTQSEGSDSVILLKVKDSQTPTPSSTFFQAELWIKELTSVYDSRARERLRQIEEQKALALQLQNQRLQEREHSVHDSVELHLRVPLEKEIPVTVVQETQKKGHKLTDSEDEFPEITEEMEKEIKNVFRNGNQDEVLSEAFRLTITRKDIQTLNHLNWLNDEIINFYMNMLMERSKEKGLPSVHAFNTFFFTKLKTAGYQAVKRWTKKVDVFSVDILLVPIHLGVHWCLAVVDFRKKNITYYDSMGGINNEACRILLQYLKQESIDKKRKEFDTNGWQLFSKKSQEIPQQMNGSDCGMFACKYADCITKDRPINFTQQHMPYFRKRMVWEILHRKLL
# [18] = biological target: T4, Sentrin-specific protease 1; experiment: Dose response confirmation of small molecule inhibitors of the catalytic domain of the SUMO protease, SENP1 in a FRET assay.; assay type: functional; conditions: read-out: IC50_Mean
# [19] = HeLa cell cytotoxicity, dose response, cytotoxicity control for MgcRacGAP inhibitor project (AID 624300); assay type: functional
# [20] = biological target: T5, Rac GTPase-activating protein 1 (Homo sapiens, UniProt Q9H0H5); experiment: MgcRacGAP GTPase-activating activity inhibitors, confirmation, biochemical, ADP Hunter fluorescence, primary and confirmatory (AID 624330); assay type: functional
# T5 sequence (Q9H0H5 whole entry): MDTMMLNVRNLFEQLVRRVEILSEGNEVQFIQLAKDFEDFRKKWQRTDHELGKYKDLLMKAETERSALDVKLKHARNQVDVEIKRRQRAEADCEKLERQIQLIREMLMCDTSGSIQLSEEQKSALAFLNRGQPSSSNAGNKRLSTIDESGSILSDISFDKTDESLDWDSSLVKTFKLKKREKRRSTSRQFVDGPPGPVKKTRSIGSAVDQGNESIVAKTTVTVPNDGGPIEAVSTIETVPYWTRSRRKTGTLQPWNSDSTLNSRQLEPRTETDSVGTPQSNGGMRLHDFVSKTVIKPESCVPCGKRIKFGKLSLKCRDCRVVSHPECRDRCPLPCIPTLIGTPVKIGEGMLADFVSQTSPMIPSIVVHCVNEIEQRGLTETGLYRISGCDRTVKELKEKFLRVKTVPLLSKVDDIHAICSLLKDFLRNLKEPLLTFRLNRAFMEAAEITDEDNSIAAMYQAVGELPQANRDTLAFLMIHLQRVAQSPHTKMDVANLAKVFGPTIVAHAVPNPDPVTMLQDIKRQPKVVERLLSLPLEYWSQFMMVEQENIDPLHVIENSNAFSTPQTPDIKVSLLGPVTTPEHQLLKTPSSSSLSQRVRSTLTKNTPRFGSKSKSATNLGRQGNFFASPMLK
# Chain of ADP-ribosylation factor GTPase-activating protein 1 (Q62848 whole entry): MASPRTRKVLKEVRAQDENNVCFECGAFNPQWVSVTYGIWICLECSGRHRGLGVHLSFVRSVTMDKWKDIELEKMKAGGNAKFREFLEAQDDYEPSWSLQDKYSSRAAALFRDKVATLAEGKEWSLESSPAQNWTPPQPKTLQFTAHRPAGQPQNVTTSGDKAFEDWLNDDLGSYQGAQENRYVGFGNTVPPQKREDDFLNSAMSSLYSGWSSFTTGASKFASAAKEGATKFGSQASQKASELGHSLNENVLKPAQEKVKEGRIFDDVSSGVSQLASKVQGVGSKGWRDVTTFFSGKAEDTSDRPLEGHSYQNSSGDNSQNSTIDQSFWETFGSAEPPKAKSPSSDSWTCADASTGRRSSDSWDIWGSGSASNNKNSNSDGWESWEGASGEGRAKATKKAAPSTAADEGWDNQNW
smiles,measurement,setting,value
O=C(Nc1ccc(-c2nc3ccccc3[nH]2)cc1)c1ccc2c(c1)OCO2,IC50,[1],42 µM (inactive)
N=c1c2c(-c3ccccc3)c(-c3ccccc3)n(Cc3ccccc3)c2ncn1CCO,EC50,[2],0.637 µM (active)
same,EC50,[3],> 150 µM (inactive)
same,EC50,[4],2.42 µM (active)
same,EC50,[5],> 30 µM (not active)
same,AC50,[6],30.5 µM (active)
same,EC50,[7],> 38 µM (not active)
same,EC50,[8],0.555 µM (active)
same,AC50,[9],23.4 µM (active)
OC(CN1CCCCC1)Cn1c2ccc(Cl)cc2c2cc(Cl)ccc21 (stereo not drawn),IC50,Saccharomyces cerevisiae,7.1 µM (active)
same,CC50,[10],14.5 µM (active)
same,EC50,[4],2.43 µM (active)
same,AC50,[11],32.1 µM (active)
same,IC50,[12],10.2 µM (active)
same,EC50,[5],10.8 µM (active)
same,AC50,[13],27.2 µM (active)
same,AC50,[14],12.1 µM (active)
same,AC50,[15],5.53 µM (active)
CC1=NN(c2ccc([N+](=O)[O-])cc2)C(=O)/C1=C/N(C)C,EC50,[16],4 µM (active)
CCOC(=O)/C=C/c1cc(F)ccc1O,IC50,[17],13.8 µM (active)
same,IC50,[18],11.2 µM (active)
COc1cc(/C=N/NC(=O)CCn2c3ccccc3c3ccccc32)ccc1O,CC50,[19],100 µM (active)
same,IC50,[20],85.8 µM (active)
